Experimental findings from patent US20210353579A1, “HIGH PENETRATION COMPOSITIONS AND USES THEREOF” (Techfields Pharma Co., Ltd., priority 2006, published 2021) are described below.

In brackets after ≈: the same amount, converted by molar mass.

The subject of one data set is human skin tissue. The settings on record: pH 7.4; for In vitro penetration rate (apparent flux), parent compounds: human, 20 %.
Another data set has as its system rats. Kind of data set: Antipyretic activity, E. coli suspension as pyrogen. In kind it is in vivo. The settings on record: in °C (unit assumed). The procedure: Rats are administered with sterilized E. coli suspension as a pyrogen. Each group of rats are administered with a prodrug compounds or parent compounds at a dosage specified below. The prodrug compounds are administered either orally or transdermally. The parent compounds are administered orally.

The nature of data set [1]: Plasma levels after transdermal administration to hairless mice. The class given is in vivo. As to conditions: for Peak plasma concentration of parent compound after prodrug compound / t, time to peak plasma level of parent compound after prodrug compound: mouse, in vivo; for t, time to peak plasma level after parent compound: parent compound administered (time when taken orally); for Peak plasma concentration after parent compound: parent compound administered, hairless mice. The procedure: Tested compounds (20% solution or suspension in 1 mL isopropanol) are administered transdermally to the skin of intact hairless mice. The plasma levels of the parent compounds are determined by HPLC.

The next data set has as its system mice. Nature of the data set: Analgesic activity, acetic acid writhing. In kind it is in vivo. As to conditions: 50 mg/kg transdermally. The procedure:
The prodrug compounds are administered either transdermally or orally. The parent compounds are administered orally. The number of writhing that occurred when mice are administered the acetic acid solution are counted, and the rate of inhibition based on the control group which was not pretreated with any test compounds is calculated. […] The A group is the control group.
For orientation: Writhing tests count abdominal constrictions after an irritant is injected.

A further data set deals with rat. The settings on record: rats.
A short description of data set [2]: Solubility in water / aqueous solubility of HPPs and parent drugs. The settings on record: water.
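For LD50 of HPP in this document: acute toxicity in rats expressed as LD50, determined for both prodrugs and their parent compounds.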

For the compound “4-N,N-dimethylaminobutyryloxy-2-methyl-N-[5-Methyl-3-isoxolyl-2H-1,2-benzothiazine-3-carboxamide 1,1-dioxide].HCl”, the “In vitro penetration rate (apparent flux), prodrug compounds” value in the data set with human skin tissue is reported as 1800 μg/cm^2/h. In the data set on rats (25 mg/kg transdermally), the “body temperature, t = 0 min” value is given as 37.52 ± 0.06; the “body temperature, t = 90 min” value is on record as 36.62 ± 0.07; the “body temperature, t = 180 min” value was found to be 36.53 ± 0.06; the “body temperature, t = 270 min” value is 36.60 ± 0.05. Further, in data set [1], the “Peak plasma concentration of parent compound after prodrug compound” value turned out to be 20 mg/L and the “t, time to peak plasma level of parent compound after prodrug compound” value amounted to 50 min. Further, in the data set on mice (60 minutes before acetic acid), the “% (rate of writhing inhibition)” value stood at 55% and the “No. of Writhing” value was 15.8. Moreover, the “LD50 of HPP” value in the data set with rat came out at 570 mg/kg.
In the case of `Cc1cnc(NC(=O)C2=C(OC(=O)CCCN(C)C)c3ccccc3S(=O)(=O)N2C)s1.Cl` [4-N,N-dimethylaminobutyryloxy-2-methyl-N-(5-methyl-2-thiazolyl)-2H-1,2-benzothiazine-3-carboxamide-1,1-dioxide.HCl], the “In vitro penetration rate (apparent flux), prodrug compounds” value in the data set with human skin tissue came to 1900 μg/cm^2/h. Moreover, in the data set with rats (25 mg/kg transdermally), the “body temperature, t = 0 min” value was found to be 37.57 ± 0.07; the “body temperature, t = 90 min” value is recorded as 36.53 ± 0.08; the “body temperature, t = 180 min” value was determined as 36.52 ± 0.08; the “body temperature, t = 270 min” value is listed as 36.50 ± 0.07. For the same compound, in data set [1], the “Peak plasma concentration of parent compound after prodrug compound” value is 20 mg/L. Besides, in the data set on mice (60 minutes before acetic acid), the “% (rate of writhing inhibition)” value is 48% and the “No. of Writhing” value is 18.2. For the same compound, the “LD50 of HPP” value in the data set on rat was 590 mg/kg.
In the case of `CN(C)CCCC(=O)OC1=C(C(=O)Nc2ccccn2)N(C)S(=O)(=O)c2cc(Cl)sc21.Cl` [6-chloro-4-N,N-dimethylaminobutyryloxy-2-methyl-N-2-pyridinyl-2H-thieno[2,3-e]-1,2-thiazine-3-carboxamide 1,1-dioxide.HCl], in the data set on human skin tissue, the “In vitro penetration rate (apparent flux), prodrug compounds” value is 1600 μg/cm^2/h. Also, in the data set with rats (25 mg/kg transdermally), the “body temperature, t = 0 min” value is recorded as 37.55 ± 0.05; the “body temperature, t = 90 min” value is given as 36.66 ± 0.06; the “body temperature, t = 180 min” value is 36.60 ± 0.06; the “body temperature, t = 270 min” value is 36.61 ± 0.07. Moreover, the “Peak plasma concentration of parent compound after prodrug compound” value in data set [1] is on record as 20 mg/L. Besides, in the data set on mice (60 minutes before acetic acid), the “% (rate of writhing inhibition)” value was determined as 53% and the “No. of Writhing” value was determined as 16.5. In addition, the “LD50 of HPP” value in the data set with rat amounted to 580 mg/kg.
The term solubility denotes how much of the substance goes into solution per volume. For `C=CCOc1ccc(CC(=O)O)cc1Cl` [Alclofenac, alclofenac, reference compound], in the data set with human skin tissue, the “In vitro penetration rate (apparent flux), parent compounds” value is given as 10 μg/cm^2/h. In data set [1], the “t, time to peak plasma level after parent compound” value (“t, time … after parent compound” below) fell in the range of 1 to 2 h and the “Peak plasma concentration after parent compound” value is reported as 0.1 mg/L. In addition, the solubility in data set [2] was 100 µg/mL (≈ 441 µM).
Taken in the same sequence, the figures for `Cc1ccc2c(c1)CC(=O)c1cc(C(C)C(=O)O)ccc1O2` (stereo not shown) [Bermoprofen, bermoprofen, reference compound] were 40 μg/cm^2/h, 2 to 4 h, 10 mg/L and 100 µg/mL (≈ 337 µM).
For the compound `Cc1c(Nc2ncccc2C(=O)O)cccc1C(F)(F)F` [Flunixin, flunixin, reference compound], the “In vitro penetration rate (apparent flux), parent compounds” value with human skin tissue stood at 10 μg/cm^2/h. In data set [1], the “t, time … after parent compound” value is 2 to 4 h and the “Peak plasma concentration after parent compound” value is on record as 0.1 mg/L. For the same compound, in data set [2], the solubility was less than 100 µg/mL.
In the same order, the values of `CC(C(=O)O)c1ccc(-c2ccccc2)c(F)c1` (stereo not shown) [Flurbiprofen, flurbiprofen, reference compound] are 30 μg/cm^2/h, 2 to 4 h, 10 mg/L and 200 µg/mL (≈ 819 µM).
In the same order, the values of `Cc1cc(NC(=O)C2=C(O)c3ccccc3S(=O)(=O)N2C)no1` [Isoxicam, isoxicam, reference compound] are less than 1 μg/cm^2/h, 2 to 4 h, 0.1 mg/L and less than 100 µg/mL.
As for `O=C(c1ccccc1)c1ccc2n1CCC2C(=O)O` (stereo not shown) [Ketorolac, ketorolac, reference compound], the “In vitro penetration rate (apparent flux), parent compounds” value in the data set with human skin tissue was 30 μg/cm^2/h. In data set [1], the “t, time … after parent compound” value lay in the range of 2 to 4 h and the “Peak plasma concentration after parent compound” value is 10 mg/L. Moreover, the solubility in data set [2] worked out at 100 µg/mL (≈ 392 µM).
For the compound `CN1C(C(=O)Nc2ccccn2)=C(O)c2sc(Cl)cc2S1(=O)=O` [Lornoxicam, lornoxicam, reference compound], the “In vitro penetration rate (apparent flux), parent compounds” value in the data set on human skin tissue is listed as less than 1 μg/cm^2/h. Besides, in data set [1], the “t, time … after parent compound” value lay in the range of 2 to 4 h and the “Peak plasma concentration after parent compound” value was 0.1 mg/L. Also, the solubility in data set [2] was less than 100 µg/mL.
In the same order, the values of `CC(C(=O)O)c1ccc(CC2CCCC2=O)cc1` (stereo not shown) [Loxoprofen, loxoprofen, reference compound] are 30 μg/cm^2/h, 2 to 4 h, 10 mg/L and 100 µg/mL (≈ 406 µM).
Taken in the same sequence, the figures for `Cc1ccc(Cl)c(Nc2ccccc2C(=O)O)c1Cl` [Meclofenamic acid, meclofenamic acid, reference compound] were 10 μg/cm^2/h, 2 to 4 h, 0.1 mg/L and less than 100 µg/mL.
For `Cc1cnc(NC(=O)C2=C(O)c3ccccc3S(=O)(=O)N2C)s1` [Meloxicam, meloxicam, reference compound], the “In vitro penetration rate (apparent flux), parent compounds” value in the data set on human skin tissue was less than 1 μg/cm^2/h. Further, in data set [1], the “t, time … after parent compound” value is 2 to 4 h and the “Peak plasma concentration after parent compound” value stood at 0.1 mg/L. Further, in data set [2], the solubility was less than 100 µg/mL.
For `O=C(O)CCc1nc(-c2ccccc2)c(-c2ccccc2)o1` [Oxaprozin, oxaprozin, reference compound], the “In vitro penetration rate (apparent flux), parent compounds” value in the data set with human skin tissue is reported as 30 μg/cm^2/h. In data set [1], the “t, time … after parent compound” value was in the range of 2 to 4 h and the “Peak plasma concentration after parent compound” value is recorded as 10 mg/L. Further, in data set [2], the solubility was determined as 100 µg/mL (≈ 341 µM).
On to `CC(C(=O)O)c1ccc(N2CC=CC2)c(Cl)c1` (stereo not shown) [Pirprofen, pirprofen, reference compound], for which the “In vitro penetration rate (apparent flux), parent compounds” value in the data set with human skin tissue is reported as 30 μg/cm^2/h. Also, in data set [1], the “t, time … after parent compound” value was in the range of 2 to 4 h and the “Peak plasma concentration after parent compound” value is listed as 10 mg/L. Further, the solubility in data set [2] came out at 100 µg/mL (≈ 397 µM).
On to `CC(C(=O)O)c1ccc(C(=O)c2cccs2)cc1` (stereo not shown) [Suprofen, suprofen, reference compound], for which the “In vitro penetration rate (apparent flux), parent compounds” value in the data set on human skin tissue worked out at 30 μg/cm^2/h. Besides, in data set [1], the “t, time … after parent compound” value lay within 2 to 4 h and the “Peak plasma concentration after parent compound” value was determined as 10 mg/L. Also, the solubility in data set [2] was found to be 100 µg/mL (≈ 384 µM).
For `CC(C(=O)O)c1ccc(C(=O)c2ccccc2)s1` (stereo not shown) [Tiaprofenic acid, tiaprofenic acid, reference compound], in the data set with human skin tissue, the “In vitro penetration rate (apparent flux), parent compounds” value stood at 30 μg/cm^2/h. In data set [1], the “t, time … after parent compound” value lay in the range of 2 to 4 h and the “Peak plasma concentration after parent compound” value is reported as 10 mg/L. The solubility in data set [2] was found to be 100 µg/mL (≈ 384 µM).
In the same order, the values of `CC(C(=O)O)c1ccc2c(c1)CC(=O)c1ccccc1S2` (stereo not shown) [Zaltoprofen, zaltoprofen, reference compound] are 30 μg/cm^2/h, 2 to 4 h, 10 mg/L and 100 µg/mL (≈ 335 µM).
Take `CC(=O)O.CCN(CC)CCOC(=O)C(C)c1cccc(C(=O)c2ccccc2)c1` (stereo not shown) [diethylaminoethyl 2-(3-benzoylphenyl) propionate.AcOH]: the “In vitro penetration rate (apparent flux), prodrug compounds” value in the data set with human skin tissue was found to be 1150 μg/cm^2/h. In the data set with rats (50 mg/kg transdermally), the “body temperature, t = 0 min” value is 37.28 ± 0.06; the “body temperature, t = 90 min” value is on record as 36.65 ± 0.06; the “body temperature, t = 180 min” value is reported as 36.58 ± 0.08; the “body temperature, t = 270 min” value was 36.60 ± 0.07. Moreover, in data set [1], the “Peak plasma concentration of parent compound after prodrug compound” value is recorded as 20 mg/L and the “t, time to peak plasma level of parent compound after prodrug compound” value came out at 40 min. Besides, in the data set with mice (30 min before acetic acid), the “% (rate of writhing inhibition)” value worked out at 59% and the “No. of Writhing” value stood at 14.2. In the data set with rat, the “LD50 of HPP” value worked out at 300 mg/kg.
As for `CC(=O)O.CC(C)Cc1ccc(C(C)C(=O)OCCN(C)C)cc1` (stereo not shown) [dimethylaminoethyl 2-(ρ-isobutylphenyl) propionate.AcOH], the “LD50 of HPP” value in the data set with rat came out at 1600 mg/kg.
With `CC(=O)Oc1ccccc1C(=O)OCCN(C)C` [dimethylaminoethyl acetylsalicylate.AcOH], in the data set on rat, the “LD50 of HPP” value was found to be 2200 mg/kg.
